Here are results for 9 compounds from patent publication US9802947B2, “3-oxo-tetrahydro-furo[3,2-b]pyrrol-4(5H)-yl) derivatives II” (GRÜNENTHAL GMBH, priority 2014, dated 2017).

For orientation: pKi means the Ki on a negative log10 scale, so that one unit is a factor of ten. The term inhibition denotes the percentage by which the read-out fell short of the control.

pKi: −log10 of the molar value.

Holding throughout (assay type): biochemical
The target in assay [1] is recombinant human cathepsin S (hCatS) (Homo sapiens (Human), UniProt P25774). As to the kind of experiment: CatS functional enzyme assay (fluorogenic substrate Z-VVR-AMC). To be noted: Ki calculated by Cheng Prusoff equation; pH 6.5. On the procedure:
(§1) Reference and test compounds were assayed for inhibitory potency (IC50) against human cathepsins using the following assay setups:
(§2) Recombinant human cathepsins (CatS, CatK, CatL, CatB) were purchased from a Enzo Life Sciences. All assays were carried out in 96-well format using a buffer of 50 mM KH2PO4, 50 mM NaCl, 2 mM EDTA, 0.5 mM DTT and 1% Triton-X-100, pH 6.5 for Cathepsin S and a buffer of 50 mM NaOAc, 10 mM EDTA, 1 mM DTT and 0.01% Triton-X-100, pH 5.5 for CatK/L/B. For CatS, the enzyme (0.0007 mU/well) was incubated with fluorogeninc substrate (Z-VVR-AMC, 5 μM) at RT for 10 min. For CatK the enzyme (0.00175 mU/well) was incubated with fluorogeninc substrate (Z-FR-AMC, 40 μM) at RT for 10 min. For CatL, the enzyme (0.000874 mU/well) was incubated with fluorogeninc substrate (Z-VVR-AMC, 40 μM) at RT for 10 min. For CatB the enzyme was incubated with fluorogenic substrate (Z-VVR-AMC, 200 μM) at RT for 10 min. Flourogenic substrate turnover was detected using a microplate reader (Synergyl™ H4, BioTek). Ki values were calculated using the Cheng Prusoff equation (Cheng & Prosoff 1973).

For assay [2], the target named is recombinant human cathepsin K (hCatK) (Homo sapiens (Human), UniProt P43235). As to the kind of experiment: CatK functional enzyme assay (fluorogenic substrate Z-FR-AMC). Conditions: for pKi: Ki calculated by Cheng Prusoff equation, pH 5.5; for Selectivity Ki(hCatS)/Ki(hCatK): ratio of Ki hCatS to Ki hCatK. On the procedure: as §1, §2
For assay [3], the target named is recombinant human cathepsin L (hCatL) (Homo sapiens (Human), UniProt P07711). Description: CatL functional enzyme assay (fluorogenic substrate Z-VVR-AMC). Conditions: pH 5.5. On the procedure:
as §1, §2

Sequence of recombinant human cathepsin K (hCatK) (P43235 115-329): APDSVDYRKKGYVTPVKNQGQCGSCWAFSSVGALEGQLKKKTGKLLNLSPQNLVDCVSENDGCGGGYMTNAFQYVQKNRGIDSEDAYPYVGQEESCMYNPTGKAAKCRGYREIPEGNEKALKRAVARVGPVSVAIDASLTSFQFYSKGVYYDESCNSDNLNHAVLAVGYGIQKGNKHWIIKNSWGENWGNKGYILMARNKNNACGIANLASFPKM
Sequence of recombinant human cathepsin S (hCatS) (P25774 115-331): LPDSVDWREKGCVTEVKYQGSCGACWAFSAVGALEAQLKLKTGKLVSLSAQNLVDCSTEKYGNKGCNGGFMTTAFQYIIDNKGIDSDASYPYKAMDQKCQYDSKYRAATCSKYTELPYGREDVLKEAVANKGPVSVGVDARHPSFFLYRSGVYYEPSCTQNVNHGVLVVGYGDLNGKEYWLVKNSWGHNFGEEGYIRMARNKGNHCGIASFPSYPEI
Sequence of recombinant human cathepsin L (hCatL) (P07711 114-333): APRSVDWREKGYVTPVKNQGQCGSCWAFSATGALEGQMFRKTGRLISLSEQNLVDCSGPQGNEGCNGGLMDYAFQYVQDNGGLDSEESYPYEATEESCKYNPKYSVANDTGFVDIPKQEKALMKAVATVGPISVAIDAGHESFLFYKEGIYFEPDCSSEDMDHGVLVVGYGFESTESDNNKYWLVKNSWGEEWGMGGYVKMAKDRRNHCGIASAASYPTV

As for `O=C(N[C@H](C(=O)N1C[C@H](Cl)[C@H]2OCC(=O)[C@H]21)C1CCCC1)c1cccc(-c2cccnc2)c1` [Comparative Example C1, N—((S)-2-((3aS,6S,6aS)-6-chloro-3-oxotetrahydro-2H-furo[3,2-b]pyrrol-4(5H)-yl)-1-cyclopentyl-2-oxoethyl)-3-(pyridin-3-yl)benzamide, reference compound], in assay [1], the pKi was 7.08. Moreover, in assay [2], the pKi was 7.83 and the “Selectivity Ki(hCatS)/Ki(hCatK)” value worked out at 6.
Turning to `O=C(N[C@H](C(=O)N1C[C@H](Cl)[C@H]2OCC(=O)[C@H]21)C1CCCC1)c1ccc(-c2cccnn2)s1` [Example 1, N—((S)-2-((3aS,6S,6aS)-6-chloro-3-oxotetrahydro-2H-furo[3,2-b]pyrrol-4(5H)-yl)-1-cyclopentyl-2-oxoethyl)-5-(pyridazin-3-yl)thiophene-2-carboxamide], in assay [1], the pKi is 6.82. In assay [2], the pKi was 8.82 and the “Selectivity Ki(hCatS)/Ki(hCatK)” value was found to be 99. Besides, in assay [3], the inhibition at 31.6 µM came out at 72%.
In the case of `O=C(N[C@H](C(=O)N1C[C@H](Cl)[C@H]2OCC(=O)[C@H]21)C1CCCC1)c1ccc(-c2cccnc2)s1` [Example 2, N—((S)-2-((3aS,6S,6aS)-6-chloro-3-oxotetrahydro-2H-furo[3,2-b]pyrrol-4(5H)-yl)-1-cyclopentyl-2-oxoethyl)-5-(pyridin-3-yl)thiophene-2-carboxamide], the negative-log Ki (pKi) in assay [1] was 6.51. In addition, in assay [2], the negative logarithm of the Ki (pKi) is 9.15 and the “Selectivity Ki(hCatS)/Ki(hCatK)” value is listed as 453. Also, the inhibition at 31.6 µM in assay [3] amounted to 45%.
Take `O=C(N[C@H](C(=O)N1C[C@H](Cl)[C@H]2OCC(=O)[C@H]21)C1CCCC1)c1ccc(-c2cncnc2)s1` [Example 3, N—((S)-2-((3aS,6S,6aS)-6-chloro-3-oxotetrahydro-2H-furo[3,2-b]pyrrol-4(5H)-yl)-1-cyclopentyl-2-oxoethyl)-5-(pyrimidin-5-yl)thiophene-2-carboxamide]: the pKi in assay [1] was 6.96; in assay [2], 8.68. The “Selectivity Ki(hCatS)/Ki(hCatK)” value in assay [2] came out at 53. In addition, in assay [3], the inhibition at 31.6 µM came to 73%.
As to `O=C(N[C@H](C(=O)N1C[C@H](Cl)[C@H]2OCC(=O)[C@H]21)C1CCCC1)c1ccc(-c2ccnnc2)s1` [Example 4, N—((S)-2-((3aS,6S,6aS)-6-chloro-3-oxotetrahydro-2H-furo[3,2-b]pyrrol-4(5H)-yl)-1-cyclopentyl-2-oxoethyl)-5-(pyridazin-4-yl)thiophene-2-carboxamide], the negative-log Ki (pKi) in assay [1] is 7.40. Moreover, in assay [2], the pKi was 8.74 and the “Selectivity Ki(hCatS)/Ki(hCatK)” value is reported as 22. Besides, the inhibition at 31.6 µM in assay [3] is 73%.
As for `O=C(N[C@H](C(=O)N1C[C@H](Cl)[C@H]2OCC(=O)[C@H]21)C1CCCC1)c1ccc(-c2cnccn2)s1` [Example 5, N—((S)-2-((3aS,6S,6aS)-6-chloro-3-oxotetrahydro-2H-furo[3,2-b]pyrrol-4(5H)-yl)-1-cyclopentyl-2-oxoethyl)-5-(pyrazin-2-yl)thiophene-2-carboxamide], the negative-log Ki (pKi) in assay [1] is 6.45. For the same compound, in assay [2], the negative-log Ki (pKi) was 8.68 and the “Selectivity Ki(hCatS)/Ki(hCatK)” value worked out at 169. Further, the inhibition at 31.6 µM in assay [3] was 81%.
For `O=C(N[C@H](C(=O)N1C[C@H](Cl)[C@H]2OCC(=O)[C@H]21)C1CCCC1)c1ccc(-c2cncc(F)c2)s1` [Example 6, N—((S)-2-((3aS,6S,6aS)-6-chloro-3-oxotetrahydro-2H-furo[3,2-b]pyrrol-4(5H)-yl)-1-cyclopentyl-2-oxoethyl)-5-(5-fluoropyridin-3-yl)thiophene-2-carboxamide], in that order: 6.76, 8.51, 55 and 42%.
For `O=C(N[C@H](C(=O)N1C[C@H](Cl)[C@H]2OCC(=O)[C@H]21)C1CCCC1)c1ncc(-c2cccnn2)s1` [Example 7, N—((S)-2-((3aS,6S,6aS)-6-chloro-3-oxotetrahydro-2H-furo[3,2-b]pyrrol-4(5H)-yl)-1-cyclopentyl-2-oxoethyl)-5-(pyridazin-3-yl)thiazole-2-carboxamide], the pKi in assay [1] was 6.58. In assay [2], the negative-log Ki (pKi) was 8.28 and the “Selectivity Ki(hCatS)/Ki(hCatK)” value came to 50. For the same compound, the inhibition at 31.6 µM in assay [3] is 62%.
With `O=C(N[C@H](C(=O)N1C[C@H](Cl)[C@H]2OCC(=O)[C@H]21)C1CCCC1)c1ccc(-c2ccncc2)s1` [Example 8, N—((S)-2-((3aS,6S,6aS)-6-chloro-3-oxotetrahydro-2H-furo[3,2-b]pyrrol-4(5H)-yl)-1-cyclopentyl-2-oxoethyl)-5-(pyridin-4-yl)thiophene-2-carboxamide], the negative logarithm of the Ki (pKi) in assay [1] is 6.80; in assay [2] it was 9.10. Also, the “Selectivity Ki(hCatS)/Ki(hCatK)” value in assay [2] stood at 210. The inhibition at 31.6 µM in assay [3] is 50%.
